Results: publication PMC7023430, “4-Aminobenzoic Acid Derivatives: Converting Folate Precursor to Antimicrobial and Cytotoxic Agents” (Biomolecules, 2019)
Converted amounts (≈) assume the structure as drawn. Read-outs that look alike come from different tables or passages of the source.

Columns and labels:
[1] = test system: Mycobacterium kansasii 235/80; assay: Antimycobacterial micromethod in Šula's medium, M. kansasii 235/80; type: cell-based
Candida tropicalis 156 = assay: Antifungal microdilution broth method, C. tropicalis; type: cell-based
How it was run: (§1)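 Duplicate microdilution tests in RPMI-1640 (2% glucose, L-glutamine, MOPS, pH 7.0) with twofold compound dilutions from DMSO gave visually determined MICs. Results counted only when duplicates agreed to within one step; protocol adapted from EUCAST.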

Candida krusei E28 = assay: Antifungal microdilution broth method, C. krusei; type: cell-based; conditions: Pichia kudriavzevii
How it was run: as §1

[2] = test system: Lichtheimia corymbifera 272; assay: Antifungal microdilution broth method, L. corymbifera; type: cell-based
How it was run: as §1

[3] = test system: Escherichia coli ATCC 25922, CCM 3954; assay: Antibacterial microdilution broth method, E. coli; type: cell-based; conditions: Escherichia coli
[4] = test system: Mycobacterium avium 330/88; assay: Antimycobacterial micromethod in Šula's medium, M. avium; type: cell-based
Candida glabrata 20/I = assay: Antifungal microdilution broth method, C. glabrata; type: cell-based; conditions: Nakaseomyces glabratus
How it was run: as §1

[5] = test system: Staphylococcus epidermidis H 6966/08; assay: Antibacterial microdilution broth method, S. epidermidis; type: cell-based; conditions: Staphylococcus epidermidis, H6966/08, S. epidermidis
[6] = test system: Pseudomonas aeruginosa ATCC 27853, CCM 3955; assay: Antibacterial microdilution broth method, P. aeruginosa; type: cell-based; conditions: Pseudomonas aeruginosa, P. aeruginosa
Trichosporon asahii 1188 = assay: Antifungal microdilution broth method, T. asahii; type: cell-based
How it was run: as §1

[7] = test system: M. kansasii 6509/96 (clinical isolate); assay: Antimycobacterial micromethod in Šula's medium, M. kansasii 6509/96; type: cell-based; conditions: Mycobacterium kansasii
[8] = test system: Enterococcus faecalis ATCC 29212, CCM 4224; assay: Antibacterial microdilution broth method, E. faecalis; type: cell-based; conditions: Enterococcus faecalis
[9] = test system: Klebsiella pneumoniae D 11750/08; assay: Antibacterial microdilution broth method, K. pneumoniae; conditions: K. pneumoniae D 11750/08; for MIC KP 24 h: 24 h incubation; for MIC KP 48 h: 48 h incubation
[10] = test system: Trichophyton interdigitale 445; assay: Antifungal microdilution broth method, T. interdigitale; type: cell-based
How it was run: as §1

[11] = test system: methicillin-resistant Staphylococcus aureus ATCC 43300, CCM 4750 (MRSA); assay: Antibacterial microdilution broth method, MRSA; type: cell-based; conditions: Staphylococcus aureus
[12] = test system: ESBL-positive Klebsiella pneumoniae J 14368/08
[13] = 235/80, 168 h, 7 days incubation at 37 °C, read-out: MIC M. kansasii 235/80 7 d
[14] = 235/80, 336 h, 14 days incubation at 37 °C, read-out: MIC M. kansasii 235/80 14 d
[15] = 235/80, 504 h, 21 days incubation at 37 °C, read-out: MIC M. kansasii 235/80 21 d
[16] = 24 h incubation, read-out: MIC EC 24 h
[17] = 48 h incubation, read-out: MIC EC 48 h
[18] = 330/88, 336 h, 14 days incubation at 37 °C, read-out: MIC M. avium 330/88 14 d
[19] = 330/88, 504 h, 21 days incubation at 37 °C, read-out: MIC M. avium 330/88 21 d
[20] = 24 h incubation, read-out: MIC SE 24 h
[21] = 48 h incubation, read-out: MIC SE 48 h
[22] = 24 h incubation, read-out: MIC PA 24 h
[23] = 48 h incubation, read-out: MIC PA 48 h
[24] = 168 h, 7 days incubation at 37 °C, read-out: MIC M. kansasii 6509/96 7 d
[25] = 336 h, 14 days incubation at 37 °C, read-out: MIC M. kansasii 6509/96 14 d
[26] = 504 h, 21 days incubation at 37 °C, read-out: MIC M. kansasii 6509/96 21 d
[27] = 24 h incubation, read-out: MIC EF 24 h
[28] = 48 h incubation, read-out: MIC EF 48 h
[29] = 24 h incubation, read-out: MIC MRSA 24 h
[30] = 48 h incubation, read-out: MIC MRSA 48 h

| SMILES | MIC [1, 13] | MIC [1, 14] | MIC [1, 15] | MIC (Candida tropicalis 156; 24 h, read-out: MIC CT 24 h) | MIC (Candida tropicalis 156; 48 h, read-out: MIC CT 48 h) | MIC (Candida krusei E28; 24 h, read-out: MIC CK 24 h) | MIC (Candida krusei E28; 48 h, read-out: MIC CK 48 h) | MIC ([2]; 24 h, read-out: MIC LC 24 h) | MIC ([2]; 48 h, read-out: MIC LC 48 h) | MIC [3, 16] | MIC [3, 17] | MIC [4, 18] | MIC [4, 19] | MIC (Candida glabrata 20/I; 24 h, read-out: MIC CG 24 h) | MIC (Candida glabrata 20/I; 48 h, read-out: MIC CG 48 h) | MIC [5, 20] | MIC [5, 21] | MIC [6, 22] | MIC [6, 23] | MIC (Trichosporon asahii 1188; 24 h, read-out: MIC TA 24 h) | further results |
| --- | --- | --- | --- | --- | --- | --- | --- | --- | --- | --- | --- | --- | --- | --- | --- | --- | --- | --- | --- | --- | --- |
| O=C(O)c1ccc(N=Cc2cc(I)cc(I)c2O)cc1 [1q, 4-[(2-Hydroxy-3,5-diiodobenzylidene)amino]benzoic acid] | 250 µM (≈ 123 µg/mL) | 500 µM (≈ 247 µg/mL) | 500 µM (≈ 247 µg/mL) | 15.6 µM (≈ 7.7 µg/mL) | 15.6 µM (≈ 7.7 µg/mL) | 31.2 µM (≈ 15.4 µg/mL) | 31.2 µM (≈ 15.4 µg/mL) | 250 µM (≈ 123 µg/mL) | 250 µM (≈ 123 µg/mL) | 500 µM (≈ 247 µg/mL) | 500 µM (≈ 247 µg/mL) | 500 µM (≈ 247 µg/mL) | 500 µM (≈ 247 µg/mL) | 7.81 µM (≈ 3.85 µg/mL) | 7.81 µM (≈ 3.85 µg/mL) | 62.5 µM (≈ 30.8 µg/mL) | 62.5 µM (≈ 30.8 µg/mL) | > 500 µM | > 500 µM | 15.6 µM (≈ 7.7 µg/mL) | MIC (Trichosporon asahii 1188; 48 h, read-out: MIC TA 48 h): 15.6 µM (≈ 7.7 µg/mL); MIC [7, 24]: 250 µM (≈ 123 µg/mL); MIC [7, 25]: 250 µM (≈ 123 µg/mL); MIC [7, 26]: 250 µM (≈ 123 µg/mL); MIC [8, 27]: 500 µM (≈ 247 µg/mL); MIC [8, 28]: 500 µM (≈ 247 µg/mL); MIC KP 24 h [9]: 500 µM (≈ 247 µg/mL); MIC KP 48 h [9]: 500 µM (≈ 247 µg/mL); MIC ([10]; 72 h, read-out: MIC TI 72 h): 7.81 µM (≈ 3.85 µg/mL); MIC ([10]; 120 h, read-out: MIC TI 120 h): 7.81 µM (≈ 3.85 µg/mL); MIC [11, 29]: 62.5 µM (≈ 30.8 µg/mL); MIC [11, 30]: 62.5 µM (≈ 30.8 µg/mL); MIC KP-E 24 h [12]: 500 µM (≈ 247 µg/mL); MIC KP-E 48 h [12]: 500 µM (≈ 247 µg/mL) |
| O=C(O)c1ccc(N=Cc2cc(Cl)ccc2O)cc1 [1c, 4-[(5-Chloro-2-hydroxybenzylidene)amino]benzoic acid] | 250 µM (≈ 68.9 µg/mL) | 250 µM (≈ 68.9 µg/mL) | 500 µM (≈ 138 µg/mL) | 125 µM (≈ 34.5 µg/mL) | 125 µM (≈ 34.5 µg/mL) | 125 µM (≈ 34.5 µg/mL) | 125 µM (≈ 34.5 µg/mL) | > 125 µM | > 125 µM | > 500 µM | > 500 µM | 1000 µM (≈ 276 µg/mL) | > 1000 µM | 125 µM (≈ 34.5 µg/mL) | 125 µM (≈ 34.5 µg/mL) | 62.5 µM (≈ 17.2 µg/mL) | 62.5 µM (≈ 17.2 µg/mL) | > 500 µM | > 500 µM | > 125 µM | MIC (Trichosporon asahii 1188; 48 h, read-out: MIC TA 48 h): > 125 µM; MIC [7, 24]: 500 µM (≈ 138 µg/mL); MIC [7, 25]: 500 µM (≈ 138 µg/mL); MIC [7, 26]: 1000 µM (≈ 276 µg/mL); MIC [8, 27]: > 500 µM; MIC [8, 28]: > 500 µM; MIC KP 24 h [9]: >500 µM; MIC KP 48 h [9]: >500 µM; MIC ([10]; 72 h, read-out: MIC TI 72 h): 125 µM (≈ 34.5 µg/mL); MIC ([10]; 120 h, read-out: MIC TI 120 h): 125 µM (≈ 34.5 µg/mL); MIC [11, 29]: > 500 µM; MIC [11, 30]: > 500 µM; MIC KP-E 24 h [12]: >500 µM; MIC KP-E 48 h [12]: >500 µM |
| O=C(O)c1ccc(NCc2ccccc2O)cc1 [1u, 4-[(2-Hydroxybenzyl)amino]benzoic acid] | 1000 µM (≈ 243 µg/mL) | 1000 µM (≈ 243 µg/mL) | 1000 µM (≈ 243 µg/mL) | > 500 µM | > 500 µM | > 500 µM | > 500 µM | > 500 µM | > 500 µM | > 500 µM | > 500 µM | > 1000 µM | > 1000 µM | > 500 µM | > 500 µM | > 500 µM | > 500 µM | > 500 µM | > 500 µM | > 500 µM | MIC (Trichosporon asahii 1188; 48 h, read-out: MIC TA 48 h): > 500 µM; MIC [7, 24]: 1000 µM (≈ 243 µg/mL); MIC [7, 25]: 1000 µM (≈ 243 µg/mL); MIC [7, 26]: 1000 µM (≈ 243 µg/mL); MIC [8, 27]: > 500 µM; MIC [8, 28]: > 500 µM; MIC KP 24 h [9]: >500 µM; MIC KP 48 h [9]: >500 µM; MIC ([10]; 72 h, read-out: MIC TI 72 h): > 500 µM; MIC ([10]; 120 h, read-out: MIC TI 120 h): > 500 µM; MIC [11, 29]: > 500 µM; MIC [11, 30]: > 500 µM; MIC KP-E 24 h [12]: >500 µM; MIC KP-E 48 h [12]: >500 µM |
